Laboratory results reported in PubChem BioAssay AID179 (DTP/NCI, 2004).
Calls of active or inactive are those of the source.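 Rule for the calls: active = compounds giving half or more protection of infected cells from virus-caused growth loss, again on retest; inactive = the rest.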 Where a SMILES comes first, the peptide text is derived from it.

Test system: CEM cells HIV-1 protection, formazan growth assay
Assay: NCI AIDS Antiviral Assay
Details: for IC50: measured here: growth of uninfected CEM cells
Outline: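 Human CEM cells, uninfected and HIV-1-infected, exposed to five drug concentrations; growth measured by soluble formazan assay and scored as percent protection from infection, with protecting compounds retested.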

## Cc1ccc2cccc(-c3cccc4ccccc34)c2n1
  EC50: > 200 µM
  IC50: 10.5 µM

## Cc1cc(Cl)nc2nc(Cl)c(N)cc12
  outcome: inactive

## O=C1CC(c2cccc(Cl)c2)n2cccc21 (stereo not given)
  EC50: > 200 µM
  IC50: 93.3 µM

## COc1cccc(/C=N/[N+](C)(C)C)c1O
  EC50: > 200 µM
  IC50: > 200 µM

## C=C1CN(S(=O)(=O)c2ccc(C)cc2)CCCN(C(=O)OC(C)C)CCCN(S(=O)(=O)c2ccc(C)cc2)C1
  EC50: > 200 µM
  IC50: 14.1 µM

## COc1cc2[nH]c3c(c2cc1OC)CCN[C@@]31CC[C@@]2(CC3c4c(cc(OC)c(O)c42)CCN3C)C[C@@H]1OC (stereo not given in full)
  outcome: inactive

## CNc1ncc(-c2nnnn2-c2ccccc2)c(CN(C)C)n1
  EC50: > 200 µM
  IC50: > 200 µM

## CC(CO)(CO)N1C(=O)c2cccc3cc([N+](=O)[O-])cc(c23)C1=O
  EC50: > 200 µM
  IC50: > 200 µM

## CCCCCCCCCCCCCCCCCCOC(COP(=O)(O)OCC1OC(n2cc(C)c(=O)[nH]c2=O)CC1N=[N+]=[N-])COP(=O)(O)OC1CC(n2cc(C)c(=O)[nH]c2=O)OC1CO (stereo not given)
  EC50: 0.17 µM
  IC50: 30.9 µM

## Cn1c(=O)c2[nH]cnc2n(CC(=O)O)c1=O
  EC50: > 1120 µM
  IC50: > 1120 µM

## Cc1cc(=O)n(-c2cc3cccccc-3n2)[nH]1
  outcome: inactive

## CCOP(=O)(OCC)C(C)(CC)/N=C(\N)NC#N (stereo not given)
  EC50: > 200 µM
  IC50: > 200 µM

## COC(=O)C1(NC(=O)C(CC(=O)OCc2ccccc2)NC(=O)OCc2ccccc2)CCCCCCC1 (stereo not given)
  EC50: > 200 µM
  IC50: 11.7 µM

## Cc1cc(O)c2c(c1)C(=O)c1cc(O)cc(O)c1C2=O
  outcome: inactive

## Cc1cc(=O)oc2cc(O)cc(O)c12
  EC50: > 1290 µM
  IC50: 166 µM

## COc1ccc(/C=N/Nc2nc(C)c(C)s2)cc1
  EC50: > 100 µM
  IC50: > 100 µM

## CSc1nc(SC)c2[nH]cnc2n1
  EC50: > 200 µM
  IC50: 145 µM

## O=C(O)CCC(=O)c1ccc2oc3ccccc3c2c1
  EC50: > 200 µM
  IC50: > 200 µM

## O=c1oc2cc(O)ccc2c(O)c1C(c1ccc(C(c2c(O)c3ccc(O)cc3oc2=O)c2c(O)c3ccc(O)cc3oc2=O)cc1)c1c(O)c2ccc(O)cc2oc1=O
  EC50: > 200 µM
  IC50: 91.2 µM

## O=C1NN=C(c2ccc([N+](=O)[O-])cc2)C1n1nc(-c2ccccc2)c2ccccc2c1=O (stereo not given)
  EC50: > 61.7 µM
  IC50: > 61.7 µM

## CC(C)(C)N/N=C(\Cc1occc(=O)c1O)C(=O)Nc1ccc([N+](=O)[O-])cc1[N+](=O)[O-]
  EC50: > 158 µM
  IC50: > 158 µM

## CCCCCCCCC(=O)NCCCNCCCNC(=O)CCCCCCCC
  EC50: > 100 µM
  IC50: 10 µM

## O=C1c2cccc([N+](=O)[O-])c2C(=O)c2c1oc1ccc3ccccc3c21
  EC50: > 200 µM
  IC50: > 200 µM

## COC(=O)N/N=C(\c1nc2ccc(Cl)cc2[nH]c1=O)C(O)c1ccc([N+](=O)[O-])cc1 (stereo not given)
  EC50: > 575 µM
  IC50: 550 µM

## Cc1nnc(N)nc1/C=C\c1cccs1
  EC50: > 200 µM
  IC50: 5.5 µM

## COc1ccc(/C=C2\Cc3ccccc3C2=O)cc1
  EC50: > 20 µM
  IC50: > 20 µM

## O=C1NC(N2CCOCC2)=N/C1=C\c1ccc(O)cc1
  EC50: > 200 µM
  IC50: 105 µM

## COC(=O)c1c/c(=N\NC(=O)CC(=O)Nc2ccc(C)cc2)c2ccccc2o1
  EC50: > 631 µM
  IC50: > 631 µM

## CCC1COc2nc(=O)c(C=NCCCN(C)C)c(N)n21 (stereo not given)
  EC50: > 302 µM
  IC50: > 302 µM

## O=[N+]([O-])C(=C(Cl)Cl)/C(Cl)=C(\Cl)Br
  outcome: inactive

## NC(=O)CCC(CCC(N)=O)(CCC(N)=O)[N+](=O)[O-]
  EC50: > 200 µM
  IC50: > 200 µM

## O=C1C(=O)c2ccccc2C(O)=C1C(C1=C(O)c2ccccc2C(=O)C1=O)c1ccc(Cl)c(Cl)c1
  EC50: > 200 µM
  IC50: 18.6 µM

## c1ccc([P+](Cc2ccco2)(c2ccccc2)c2ccccc2)cc1
  EC50: > 200 µM
  IC50: 3.39 µM

## COc1cc(CC(=O)O)c([N+](=O)[O-])cc1OC
  EC50: > 1020 µM
  IC50: 891 µM

## O=C1C(Cl)=C(Cl)C(=O)N1c1ccccc1Cl
  outcome: inactive

## Cc1cc(C)nc(NS(=O)(=O)c2ccc(NCN3C(=O)c4ccccc4C3=O)cc2)n1
  EC50: > 200 µM
  IC50: 110 µM

## COC(=N)C12C(N)=NC(OC)(OC)C1(C#N)C21C(=O)N(c2ccccc2)N=C1C (stereo not given)
  EC50: > 200 µM
  IC50: 97.7 µM

## C[C@]12CC[C@H]3[C@@H](CCC4=C/C(=N/OCCN5CCCCC5)CC[C@@]43C)[C@@H]1CC[C@@H]2O
  EC50: > 200 µM
  IC50: 4.17 µM

## CN1CCCC(C(=O)O)(c2ccccc2)CC1 (stereo not given)
  outcome: inactive

## CN1CC[C@@H](O)[C@@H](CNC23CC4CC(CC(C4)C2)C3)C1
  outcome: inactive

## Cc1ccccc1N=Nc1c(S(=O)(=O)O)cc2cc(NC(=O)Nc3ccc4c(O)c(N=Nc5ccc6cc(S(=O)(=O)O)ccc6c5)c(S(=O)(=O)O)cc4c3)ccc2c1O
  outcome: active

## COC(=O)C1C(=O)CC[C@H]2CN3CCc4c([nH]c5ccccc45)C3CC12 (stereo not given in full)
  EC50: > 53.7 µM
  IC50: > 53.7 µM

## CC1c2c(cc(=O)n(Cc3ccccc3)c2O)C(=O)N1Cc1ccccc1 (stereo not given)
  EC50: > 72.4 µM
  IC50: 61.7 µM

## COc1ccc(CN(Cc2ccc(OC)cc2)C(=O)CC2(O)C=CCC2)cc1 (stereo not given)
  EC50: > 200 µM
  IC50: 75.9 µM

## O=C(Nn1c(-c2ccccc2)nc2ccccc2c1=O)c1ccc(Cl)cc1
  EC50: > 200 µM
  IC50: 120 µM

## Cc1ccccc1C(=O)NC(O)(C(F)(F)F)C(F)(F)F
  outcome: inactive

## Cc1cc2nnc(C(N)=O)c(N)c2cc1C
  EC50: > 200 µM
  IC50: > 200 µM

## CC(=O)NC(CS)C(=O)NC(CO)C(=O)NC(CO)C(=O)NC(Cc1c[nH]c2ccccc12)C(=O)N1CCCC1C(=O)NC(CO)C(=O)NC(Cc1c[nH]c2ccccc12)C(=O)NC(Cc1c[nH]cn1)C(=O)NC(CO)C(=O)NC(Cc1c[nH]c2ccccc12)C(=O)NCC(=O)NCC(=O)NC(CC(=O)O)C(=O)NC(CCC(N)=O)C(=O)NC(CCCCN)C(=O)NC(Cc1ccccc1)C(=O)NC(CCCNC(=N)N)C(=O)NC(CCCCN)C(N)=O (stereo not given) (Ac-CSSWPSWHSWGGDQKFRK-NH2; configuration not given here)
  EC50: > 20 µM
  IC50: > 20 µM

## NC(=O)NC(=O)c1cccs1
  EC50: > 200 µM
  IC50: > 200 µM

## COc1cc2cnc3c4cc(OC)c(OC)cc4ccc3c2cc1OC
  outcome: inactive

## Cc1ccc(O)c(C(c2ccc(C(c3cc(C)ccc3O)c3cc(C)ccc3O)cc2)c2cc(C)ccc2O)c1
  EC50: > 20 µM
  IC50: 3.09 µM

## CC(=O)N/C(=C\c1cccc([N+](=O)[O-])c1)c1nc2c3c(ccc2[nH]1)C(=O)c1ccccc1C3=O
  outcome: inactive

## COC(=O)C1(O)CC(=O)CCC1c1ccc(OC)cc1 (stereo not given)
  EC50: > 275 µM
  IC50: > 275 µM

## CC(C)(C)n1c(=O)n2c(-c3ccccc3)c(-c3ccccc3)n2c1=O
  EC50: > 200 µM
  IC50: 25.7 µM

## CCOC(=O)Nc1ccc2nc(Sc3ccc(C)cc3)sc2c1
  EC50: > 20.9 µM
  IC50: 1.23 µM

## C/C=C1\CN2CCc3c([nH]c4ccccc34)C2CC1C(=O)OC (stereo not given)
  EC50: > 219 µM
  IC50: > 219 µM

## O=C1Nc2ccc([N+](=O)[O-])c3c(C(=O)O)ccc1c23
  EC50: > 200 µM
  IC50: 141 µM

## CC(NC(=O)CNC(=O)C(N)CO)C(=O)NC(CCC(=O)O)C(=O)NC(CCC(=O)O)C(=O)NC(CO)C(=O)NC(CCCCN)C(=O)NC(CCC(=O)O)C(=O)NC(CCC(N)=O)C(=O)NC(CO)C(=O)N1CCCC1C(=O)NC(CC(N)=O)C(=O)NC(C)C(=O)NC(Cc1cnc[nH]1)C(=O)NC(CO)C(=O)O (stereo not given) (H-SGAEESKEQSPNAHS-OH; configuration not given here)
  EC50: > 100 µM
  IC50: > 100 µM

## CC(=O)Nc1ccccc1
  EC50: > 1860 µM
  IC50: > 1860 µM

## CSC(=S)N(C)c1nc(=[N+](C)C)ss1
  outcome: inactive

## NS(=O)(=O)c1cc2c(cc1Cl)NC=NS2(=O)=O
  EC50: > 851 µM
  IC50: > 851 µM

## COC(=O)C1=CC2OC1(C)CCC2=O (stereo not given)
  outcome: inactive

## CCC1CN2CCc3cc(OC)c(OC)cc3C2CC1CC1c2cc(OC)c(OC)cc2CCN1C(=O)C(Cc1c[nH]c2ccccc12)NC(=O)OC(C)(C)C (stereo not given)
  outcome: inactive

## O=C(CC(O)c1cccnc1)CC(O)c1cccnc1 (stereo not given)
  EC50: > 200 µM
  IC50: 2.82 µM

## COc1nc(=O)n(C2CC(F)C(CO)O2)cc1C (stereo not given)
  EC50: 79.4 µM
  IC50: > 200 µM

## Cc1ccc(S(=O)(=O)NC(CSSCC(NS(=O)(=O)c2ccc(C)cc2)C(=O)OC(C)(C)C)C(=O)OC(C)(C)C)cc1 (stereo not given)
  EC50: > 200 µM
  IC50: > 200 µM

## CCOP(=O)(CC(=O)NC(C(N)=O)C(C)C)OCC (stereo not given)
  EC50: > 100 µM
  IC50: 52.5 µM

## O=P(NC1CCCCC1)(NC1CCCCC1)NC1CCCCC1
  EC50: > 200 µM
  IC50: > 200 µM

## NC(N)=NS(=O)(=O)c1ccc(NCc2cccc3c(=O)c4ccc(Cl)cc4oc23)cc1
  EC50: > 25.1 µM
  IC50: 2.19 µM

## O=C(CCc1ccc(O)cc1)NCCCNC(=O)CCc1ccc(O)cc1
  EC50: > 200 µM
  IC50: > 200 µM

## CC(=O)NNC(=S)N/C=C\c1nc2ccccc2[nH]c1=O
  EC50: > 200 µM
  IC50: > 200 µM

## CCN(CC)C1Oc2cc3c(cc2C(c2cccc(OC)c2O)C1C)OCO3 (stereo not given)
  EC50: > 200 µM
  IC50: 3.8 µM

## CN(C)CC1COC2Cc3ccccc3C1O2 (stereo not given)
  EC50: > 200 µM
  IC50: > 200 µM

## CCOC(=O)c1c(C)[nH]c(=S)c(C#N)c1-c1ccco1
  EC50: > 200 µM
  IC50: 81.3 µM

## CO[C@@H]1C=C[C@@]23c4cc5c(cc4CN(C[C@@H]2O)[C@H]3C1)OCO5
  EC50: > 603 µM
  IC50: 1.1 µM

## CC(C)(C[NH-])C[NH-].[Cl][Pt+2][Cl]
  EC50: > 676 µM
  IC50: 2.04 µM

## CN(C)C(=NCc1ccccc1)NC#N
  EC50: > 1230 µM
  IC50: > 1230 µM

## CO[C@@H]1C[C@H]2[C@@H]3CC[C@H]([C@H](C)CO)[C@@]3(C)CC[C@@H]2[C@@]2(C)CC[C@H]3C[C@]312
  EC50: > 174 µM
  IC50: 81.3 µM

## Cn1nc(NC(=O)c2cc(NC(=O)Nc3cc(C(=O)Nc4cc(C(=O)Nc5ccc6cc(S(=O)(=O)O)cc(S(=O)(=O)O)c6c5)n(C)n4)n(C)n3)nn2C)cc1C(=O)Nc1ccc2cc(S(=O)(=O)O)cc(S(=O)(=O)O)c2c1
  EC50: 5.13 µM
  IC50: > 100 µM

## O=C(Nc1ccc(CC2=NCCCN2)cc1)c1ccc(C(=O)Nc2ccc(CC3=NCCCN3)cc2)cc1
  EC50: > 200 µM
  IC50: 112 µM
